According to US10723706B2, “Perk inhibitors and uses thereof in treating diseases associated with aggregation-prone proteins” (Ramot at Tel-Aviv University Ltd., priority 2016, dated 2020):
“Also recorded” adds a separate entry of the source.

What was measured:
[1] = system: R6/2 transgenic mice; test: Survival of R6/2 mice; assay type: in vivo, mouse
Description: Animals were treated as described in FIGS. 7-9. Transgenic mice receiving MK-28 (blue) or vehicle (red) were analyzed for mice survival (n=13/group). Gehan-Breslow-Wilcoxon Test for comparisons of Kaplan-Meier survival curves indicated a significant increase in the survival of MK-28 treated mice compared to untreated littermates (median survival 97 and 89 days, respectively, p=0.0469). Ratio 1.887, 95% CI of ratio 0.7726 to 4.611.
(§1) Alzet pumps were implanted at 4 weeks of age and MK-28 was administered at 1 mg/kg with continuous dosing for 28 days. This concentration is in a typical clinical dose range. The mice's motor function and coordination were tested by Rotarod, and limb clasping, ledge, gait and kyphosis were also tested. Vocalization tests were also performed and survival was assessed. Tests were performed in two independent blind experiments.

[2] = system: R6/2 transgenic mice; test: Combined motor phenotype (ledge, clasping, gait, kyphosis) in R6/2 mice; assay type: in vivo, mouse
Text: Hind-limb clasping behavior was scored on a scale from 0 to 3: 0=normal; 1=clasps hind limbs within 30 seconds of being suspended in the air; 2=clasps hind limbs within 5 seconds but recovers quickly when released after 30 seconds; 3=clasps hind limbs within 5 seconds and has difficulty recovering when released after 30 seconds.
The ledge test is a direct measure of coordination. Mice were lifted from the cage and placed on the cage's ledge. Mice will typically walk along the ledge and attempt to descend back into the cage. Walking along the ledge without losing its balance is assigned a score of 0. If the mouse loses its footing while walking along the ledge, it receives a score of 1. […] If it falls off the ledge, or nearly so, while walking or attempting to lower itself, or shakes and refuses to move at all despite encouragement, it receives a score of 3.
Gait is a measure of coordination and muscle function. […]
In parallel to the Rotarod analysis motor function and disease severity were evaluated using a simple composite phenotype that includes the combined analysis of hind limb clasping, ledge walk, gait and kyphosis [Guyenet et al., J Vis Exp 2010, (39):1787]. This test has the ability to effectively discriminate between affected and non-affected individuals, while also quantifying the temporal progression of neurodegenerative disease phenotypes such as HD.

[3] = system: R6/2 transgenic mice; test: Ultrasonic vocalization of R6/2 mice; assay type: in vivo, mouse
Description: Mice were treated as described in FIGS. 7 and 8. Transgenic mice receiving (MK-28 TG+) or vehicle (TG) were analyzed for vocalization as number of syllables in 5 minutes intervals. (n=3-4, p=0.059).
as §1
Vocalization was evaluated, as it reflects motor and cognitive abilities.

[4] = system: cells; test: Intrinsic cytotoxicity on cells; assay type: cell-based

CN(/N=C\c1ccc(O)c(O)c1)c1nc(-c2ccccc2)cc(-c2ccccc2)n1 [Compound 3, 2-{N-methyl-N′-(3,4-dihydroxybenzylidene)hydrazinyl}-4,6-diphenylpyrimidine]
delay of death initiation versus vehicle ([1]; R6/2 TG mice): ~10 days
increase in median survival versus untreated TG ([1]; R6/2 TG mice): 8 days
median survival ([1]; R6/2 TG mice treated age weeks 4 to 8, n=13/group, p=0.0469): 97 days
Ratio, comparison of Kaplan-Meier survival curves ([1]; R6/2 TG mice, 95% CI of ratio 0.7726 to 4.611): 1.887
combined phenotype score of TG mice versus untreated TG ([2]; R6/2 TG mice, from week 6 after pump implantation, p<0.05, listed as MK-28): lower scores; also recorded: significant improvement
combined phenotype of WT mice ([2]; WT mice, p>0.05): no detrimental effect
vocalization, number of syllables ([3]; R6/2 TG mice treated with MK-28, n=3-4, p=0.059): 13.75 syllables in 5 minutes
vocalization effect versus untreated R6/2 ([3]; R6/2 TG mice, listed as MK-28): three fold difference; also recorded: improved
intrinsic cytotoxicity on cells [4]: neither MPGL1 nor MK-28 exhibited intrinsic cytotoxicity
